Results: patent US11932872B2, “Dual chimeric antigen receptor-t cell which can be regulated, construction method therefor and use thereof” (NANJING ANJI BIOLOGICAL TECHNOLOGY CO., LTD, priority 2017, dated 2024)
Ends that are not written are not given here.

Columns and labels:
[1] = tested on: K562 tumor cells; assay: Killing curve of K562 tumor cells by puromycin / hygromycin; assay type: cell-based; conditions: 5 consecutive days
Procedure: 1) Low-generation cell strains were resuscitated from liquid nitrogen, and subjected to conventional culture and passaged 5 times, then the cell state was adjusted to a logarithmic growth period.
2) A new 24-well plate was prepared, 50000 K562 tumor cells were inoculated per well for 7 wells in total, and 500 μL of complete culture medium (RPMI1640, 10% FBS) was added per well. The well plate was placed in an incubator at 37° C. with 5% CO2 and cultured overnight.
3) The cell well plate was taken out from the incubator, one well was left free of puromycin, and puromycin with final concentrations of 0.5, 1, 2, 4, and 8 μg/mL were added to the remaining wells respectively.
4) The well plate was placed in an incubator at 37° C. with 5% CO2 for continuous cultivation. The state of cells in the well plate was observed under a microscope every day for 5 consecutive days. And the minimum concentration that can completely kill all cells on the fifth day was taken as the puromycin concentration for subsequent stable cell strain screening.
The method is the same as that of Example 3.4. The concentration gradient of the hygromycin was set to 50, 100, 200, 400 and 800 μg/mL respectively, and the concentration of the hygromycin was finally selected to be 100 μg/mL through the determination of the killing curve.

[2] = tested on: MSLN+K562 cells (mixed equally with CEA+K562 cells, intraperitoneal); assay: Tumor killing test by sdCAR-T cells in vivo; set-up: species or system nude mice BALB/c; conditions: nude mice; for in vivo cytokine (IL-2 and IFNγ) release level / in vivo cytokine (IL-2 and IFNγ) release level compared with Conventional CAR-T cell group: abdominal cavity fluid supernatant; for in vivo cytotoxicity of sdCAR-T cells: intraperitoneal tumor cells, abdominal cavity fluid by flow cytometry
Procedure: Female nude mice BALB/c which were 6-8 weeks old were selected, MSLN^+K562 cells and CEA^+K562 cells were mixed equally and injected intraperitoneally into the nude mice, and then corresponding effector cells and switching molecules were added respectively. Refer to FIG. 19 for details of the in vivo test process. Six test groups were designed, with 6 nude mice in each group. Specific solutions are as follows:
group 1: effector cells are T cells (No CAR) and no switching molecules are added;
group 2: effector cells are the second generation of CAR-T cells (Conventional CAR) specific to MSLN, and no switching molecules are added;
group 3: effector cells are sdCAR-T cells and no switching molecules are added;
group 4: effector cells are sdCAR-T cells, and small molecule HM-3 is added;
group 5: effector cells are sdCAR-T cells and switching molecule FITC is added; and
After the test was completed, the nude mice were euthanized, and then 5 mL of pre-cooled PBS was injected into the abdominal cavities of the nude mice. After the abdominal cavities of the nude mice were rubbed many times, the abdominal cavity fluid was sucked out completely, and centrifuged at a centrifugal force of 800 g for 8 min. The cells were collected, and the percentage of the two tumor cells was measured by flow cytometry, and then the in vivo activity of sdCAR-T cells could be calculated. In addition, the above centrifuged supernatant was collected to measure the release levels of cytokines IL-2 and IFNγ respectively.

[3] = tested on: MSLN+K562 cells (mixed 1:1 with CEA+K562); assay: Time regulation of in vitro activity of sdCAR-T cells by exogenous switching molecules; assay type: cell-based, human; conditions: switching molecule added at 4 h, sampled every 2 h, effector:target 5:2
Procedure: This example verified that the killing activity of the sdCAR-T cells on tumor cells was subjected to time regulation by the switching molecules, and the selected target cells were MSLN single positive tumor cells and single positive tumor cells of negative control CEA. In the 14-hour test, the cytotoxicity of sdCAR-T cells was tested in real time with and without switching molecules. A total of four test groups were designed, each group had three parallel wells, and the design of test group was the same as that of Example 6.
1) Effector cells and mixed target cells (MSLN^+K562:CEA^+K562, 1:1) were co-incubated at a ratio of 5:2 in a 6-well plate, RPMI1640 (containing 10% FBS) was selected as a co-culture medium, cultured at 37° C. with 5% CO2.
2) 100 μL of cell suspension was taken every 2 h as the culturing begins at the 0 h.
3) Corresponding switching molecules were added at the 4 h.
4) Co-culturing for 10 h (that is, cell suspension was taken 6 times); after the culture, the ratio of MSLN and CEA tumor cells in each test group was detected by a flow cytometer, and then the survival rate of MSLN target cells was calculated.

[4] = tested on: MSLN+K562 target cells (mixed 1:1 with CEA+K562); assay: Cytotoxicity test of sdCAR-T cells in vitro; assay type: cell-based, human; conditions: for percentage content of homologous target cells MSLN+K562 (green fluorescence): fluorescence detection, versus beginning of the test
Procedure: The cytotoxicity of sdCAR-T cells was determined according to the survival rate of target cells (MSLN^+K562). The selected target cells were equal mixed cells of MSLN and CEA. […] The survival rate of MSLN target cells in each test group was calculated according to the following formula, and then the tumor killing ability of the constructed CARs-T cells in vitro could be analyzed.
1) Effector cells and mixed target cells (MSLN^+K562:CEA^+K562, 1:1) were co-incubated at a ratio of 5:2 in a U-shaped 96-well plate, RPMI1640 (10% FBS) was selected as a co-culture medium, and corresponding switching molecule s were added.
2) Culturing at 37° C. for 22 h with 5% CO2.
3) The ratio of MSLN and CEA tumor cells in each test group was detected by a flow cytometer, and then the survival rate of MSLN target cells was calculated.

Compound	minimum concentration that can completely kill all cells on the fifth day (concentration selected from the killing curve) [1] [µg/mL]	in vivo cytokine (IL-2 and IFNγ) release level [2]	in vivo cytokine (IL-2 and IFNγ) release level compared with Conventional CAR-T cell group [2]	in vivo cytotoxicity of sdCAR-T cells [2]	in vivo cytotoxicity of FHBM treatment group compared with FITC treatment group ([2]; sdCAR-T cells plus switching molecule)	cytotoxicity of sdCAR-T cells after addition of switching molecule [3]	percentage content of homologous target cells MSLN+K562 (green fluorescence) [4]	survival rate of MSLN tumor cells ([4]; effector:mixed target cells 5:2, 22 h, flow cytometry)
COc1ccc(C[C@H](N)C(=O)N[C@H]2[C@@H](O)[C@H](n3cnc4c(N(C)C)ncnc43)O[C@@H]2CO)cc1 [puromycin]	1							
FHBM: FITC and polypeptide HM-3 coupled to form a bifunctional small molecule; exogenous switching molecule for sdCAR-T cells (IVRRADRAAVPGGGGRGD; also: FITC coupled to HM-3, site not given here)		release significant cytokine levels	only half of the level	significant cytotoxicity	better than that of the FITC treatment group	significant cytotoxicity	significantly lower than that at the beginning of the test	
O=C1OC2(c3ccc(O)cc3Oc3cc(O)ccc32)c2ccc(N=C=S)cc21 [FITC]		release significant cytokine levels	only half of the level	significant cytotoxicity		significant cytotoxicity	significantly lower than that at the beginning of the test	about 30.98%
